A short description of one series: Solubility in water. It is filed as physicochemical. Conditions: general statement, no method described.
For another series, the system named is monoarthritis in rats. Put plainly: mBSA-induced monoarthritis model in rats (knee swelling, limping). Conditions: oral daily meloxicam 0.2 mg/kg. Type of series: in vivo, rat. As to the method: Monoarthritis was induced in rats (male, Sprague Dawley strain, aged 14 weeks) by intra-articular injection (knee) of 100 μg of mBSA after two preliminary sensitizers (2 and 3 weeks before the induction) by subcutaneous injection of a CFA emulsion containing 500 μg of mBSA. The distribution was carried out on D2, 24 h after induction, as a function of the intensity of the swelling in order to obtain homogeneity between the groups. […] The HBP-meloxicam molecules were solubilized in 5% glucose. In control, the pathological animals (mBSA) received a single injection (caudal vein, 5 min infusion, volume of 10 mL/kg) of 5% glucose.
In reference treatment, the animals received an oral daily administration of meloxicam for 28 days at the NOEL dose of 0.2 mg/kg-0.57 μmol/kg, i.e., a cumulative dose of 15.96 μmol/kg.
The evolution of arthritis was monitored by measuring the swelling of the pathological knee as well as the animal's limping.

For the molecule `Cc1cnc(NC(=O)C2=C(O)c3ccccc3S(=O)(=O)N2C)s1` [meloxicam], the solubility in water entry in the series “Solubility in water” was “very poorly soluble”. For the same molecule, in the series with monoarthritis in rats, the “end of limping after treatment” value was 9 days.

(Values after patent publication US20250281620A1, “HYDROXYBISPHOSPHONIC DERIVATIVES OF MELOXICAM FOR THE TREATMENT OF INFLAMMATORY JOINT DISEASES” (Atlanthéra, priority 2021, published 2025).)
